# Assay results as given in patent publication US11434242B2, “Dopamine-b-hydroxylase inhibitors” (BIAL-PORTELA & Cª, S.A., priority 2017, dated 2022).
# Target: T1, Dopamine beta hydroxylase (Homo sapiens, UniProt P09172)
# T1 construct: 125 μl of plasma; tissue Instituto Português do Sangue Transplantação; host or cells: human plasma from healthy donors
# T1 sequence (P09172 40-617 limits assumed): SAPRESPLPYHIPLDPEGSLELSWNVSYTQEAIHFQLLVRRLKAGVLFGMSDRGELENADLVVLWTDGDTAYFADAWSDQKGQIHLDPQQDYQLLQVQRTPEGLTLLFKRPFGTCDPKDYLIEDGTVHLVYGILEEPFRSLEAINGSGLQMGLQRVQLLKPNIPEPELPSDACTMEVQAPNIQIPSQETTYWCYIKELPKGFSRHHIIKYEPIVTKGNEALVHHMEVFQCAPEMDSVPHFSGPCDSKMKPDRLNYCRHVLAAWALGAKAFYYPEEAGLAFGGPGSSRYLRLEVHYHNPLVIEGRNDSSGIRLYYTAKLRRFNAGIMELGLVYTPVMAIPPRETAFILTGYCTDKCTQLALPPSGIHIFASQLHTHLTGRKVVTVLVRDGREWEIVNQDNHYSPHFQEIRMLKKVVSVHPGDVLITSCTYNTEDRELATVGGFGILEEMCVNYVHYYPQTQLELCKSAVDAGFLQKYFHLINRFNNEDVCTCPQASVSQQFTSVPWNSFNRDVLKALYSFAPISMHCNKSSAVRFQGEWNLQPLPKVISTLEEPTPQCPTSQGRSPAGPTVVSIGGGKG
# Test: Dopamine beta hydroxylase activity in human plasma
# Assay type: biochemical
# Details: for Plasma (0.01 μM), activity in % of control: inhibitor 0.01 μM; for Plasma (0.1 μM), activity in % of control: inhibitor 0.1 μM; for Plasma (1 μM), activity in % of control: inhibitor 1 μM
# How it was run: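 Octopamine production from tyramine over 45 min at 37° C, measured photometrically at 330 nm after SCX extraction and periodate oxidation against an octopamine standard curve, indicates plasma DβH activity. Compounds tested at final 10, 100 and 1000 nM in human plasma, pH 5.0 cofactor buffer, 10 min preincubation; results as % of control.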
"Plasma (0.01 μM), activity in % of control","Plasma (0.1 μM), activity in % of control","Plasma (1 μM), activity in % of control",SMILES
68.6 % of control,19.9 % of control,,"CN(CCc1[nH]c(=S)n2c1[C@@H]1C[C@]1(c1cc(Br)ccc1F)C2)C1CCCC1.F [Example 190, (5aS,6aR)-5a-(5-bromo-2-fluorophenyl)-1-(2-(cyclopentyl(methyl)amino)ethyl)-5,5a,6,6a-tetrahydrocyclopropa[3,4]pyrrolo[1,2-c]imidazole-3(2H)-thione hydrofluoride]"
48.2 % of control,9.4 % of control,,"Cn1c(CC(=O)NC[C@H]2CCCO2)c2n(c1=S)C[C@H](c1c(F)ccc(Cl)c1F)C2 [Example 337, 2-((S)-6-(3-chloro-2,6-difluorophenyl)-2-methyl-3-thioxo-2,5,6,7-tetrahydro-3H-pyrrolo[1,2-c]imidazol-1-yl)-N—(((R)-tetrahydrofuran-2-yl)methyl)acetamide]"
,58.3 % of control,11.9 % of control,"CCOC(=O)Cc1[nH]c(=S)n2c1C[C@H](c1c(F)c(F)cc(F)c1F)C2 [Example 63, Ethyl (R)-2-(6-(2,3,5,6-tetrafluorophenyl)-3-thioxo-2,5,6,7-tetrahydro-3H-pyrrolo[1,2-c]imidazol-1-yl)acetate]"
92.4 % of control,44.8 % of control,,"Cn1c(CC(=O)N2CC[C@H](C#N)C2)c2n(c1=S)C[C@@H](c1c(F)ccc(F)c1F)C2 [Example 348, (S)-1-(2-((R)-2-methyl-3-thioxo-6-(2,3,6-trifluorophenyl)-2,5,6,7-tetrahydro-3H-pyrrolo[1,2-c]imidazol-1-yl)acetyl)pyrrolidine-3-carbonitrile]"
96.0 % of control,40.9 % of control,,"Cn1c(CC(N)=O)c2n(c1=S)C[C@H](c1c(F)ccc(Cl)c1F)C2 [Example 249, (S)-2-(6-(3-chloro-2,6-difluorophenyl)-2-methyl-3-thioxo-2,5,6,7-tetrahydro-3H-pyrrolo[1,2-c]imidazol-1-yl)acetamide]"
90.6 % of control,38.4 % of control,,"Cn1c(CC(=O)N2CCC(CF)C2)c2n(c1=S)C[C@@H](c1c(F)ccc(F)c1F)C2 (stereo partly drawn) [Example 353, 1-(3-(fluoromethyl)pyrrolidin-1-yl)-2-((R)-2-methyl-3-thioxo-6-(2,3,6-trifluorophenyl)-2,5,6,7-tetrahydro-3H-pyrrolo[1,2-c]imidazol-1-yl)ethan-1-one]"
84.2 % of control,24.2 % of control,,O=C(Cc1[nH]c(=S)n2c1[C@@H]1C[C@]1(c1cc(Br)ccc1F)C2)N1CCOCC1 [Example 157]

# Continued, compound first:
SMILES,"Plasma (0.01 μM), activity in % of control","Plasma (0.1 μM), activity in % of control","Plasma (1 μM), activity in % of control"
"CCOC(=O)Cc1[nH]c(=S)n2c1C[C@@H](c1c(F)ccc(Br)c1F)C2 [Example 59, ethyl (S)-2-(6-(3-bromo-2,6-difluorophenyl)-3-thioxo-2,5,6,7-tetrahydro-3H-pyrrolo[1,2-c]imidazol-1-yl)acetate]",,20.8 % of control,4.1 % of control
"Cn1c(CC(=O)NC2COC2)c2n(c1=S)C[C@@H](c1c(F)ccc(F)c1F)C2 [Example 414, (R)-2-(2-methyl-3-thioxo-6-(2,3,6-trifluorophenyl)-2,5,6,7-tetrahydro-3H-pyrrolo[1,2-c]imidazol-1-yl)-N-(oxetan-3-yl)acetamide]",95.4 % of control,49.0 % of control,
"Cn1c(CC(=O)N2CC[C@H](C#N)C2)c2n(c1=S)C[C@H](c1c(F)ccc(Br)c1F)C2 [Example 450, (S)-1-(2-((S)-6-(3-bromo-2,6-difluorophenyl)-2-methyl-3-thioxo-2,5,6,7-tetrahydro-3H-pyrrolo[1,2-c]imidazol-1-yl)acetyl)pyrrolidine-3-carbonitrile]",32.6 % of control,2.3 % of control,
"Cn1c(CC(=O)N[C@@H]2CCCOC2)c2n(c1=S)C[C@@]1(c3c(F)ccc(Cl)c3F)C[C@@H]21 [Example 415, 2-((5aS,6aR)-5a-(3-chloro-2,6-difluorophenyl)-2-methyl-3-thioxo-2,3,5,5a,6,6a-hexahydrocyclopropa[3,4]pyrrolo[1,2-c]imidazol-1-yl)-N—((R)-tetrahydro-2H-pyran-3-yl)acetamide]",14.9 % of control,2.1 % of control,
"Cn1c(CC(=O)N[C@H]2CCOC2)c2n(c1=S)C[C@H](c1c(F)ccc(F)c1F)C2 [Example 417, 2-((S)-2-methyl-3-thioxo-6-(2,3,6-trifluorophenyl)-2,5,6,7-tetrahydro-3H-pyrrolo[1,2-c]imidazol-1-yl)-N—((S)-tetrahydrofuran-3-yl)acetamide]",87.7 % of control,60.5 % of control,
"CNCCc1[nH]c(=S)n2c1C[C@@H](c1c(F)ccc(Cl)c1F)C2.Cl [Example 193, (S)-6-(3-chloro-2,6-difluorophenyl)-1-(2-(methylamino)ethyl)-2,5,6,7-tetrahydro-3H-pyrrolo[1,2-c]imidazole-3-thione Hydrochloride]",86.0 % of control,46.3 % of control,
"Cn1c(CC(=O)N2CCOCC2)c2n(c1=S)C[C@H](c1c(F)ccc(Cl)c1F)C2 [Example 329, (S)-2-(6-(3-chloro-2,6-difluorophenyl)-2-methyl-3-thioxo-2,5,6,7-tetrahydro-3H-pyrrolo[1,2-c]imidazol-1-yl)-1-morpholinoethan-1-one]",41.7 % of control,16.1 % of control,
"O=C(Cc1[nH]c(=S)n2c1C[C@@H](c1c(F)ccc(Br)c1F)C2)N1CC[S+]([O-])CC1 [Example 166, (S)-2-(6-(3-bromo-2,6-difluorophenyl)-3-thioxo-2,5,6,7-tetrahydro-3H-pyrrolo[1,2-c]imidazol-1-yl)-1-(1-oxidothiomorpholino)ethan-1-one]",66.9 % of control,14.1 % of control,
"CN(C)C(=O)Cc1[nH]c(=S)n2c1[C@@H]1C[C@]1(c1cc(F)cc(Cl)c1)C2 [Example 69, 2-((5aS,6aR)-5a-(3-chloro-5-fluorophenyl)-3-thioxo-2,3,5,5a,6,6a-hexahydrocyclopropa[3,4]pyrrolo[1,2-c]imidazol-1-yl)-N,N-dimethylacetamide]",,82.1 % of control,24.1 % of control
"CN(C)CCCNC(=O)Cc1[nH]c(=S)n2c1[C@@H]1C[C@]1(c1cc(Br)ccc1F)C2.Cl [Example 146, 2-((5aS,6aR)-5a-(5-bromo-2-fluorophenyl)-3-thioxo-2,3,5,5a,6,6a-hexahydrocyclopropa[3,4]pyrrolo[1,2-c]imidazol-1-yl)-N-(3-(dimethylamino)propyl)acetamide hydrochloride]",,13.8 % of control,0.9 % of control
